What was measured:
YSK4/MAP3K19 = target: T1, YSK4/MAP3K19 (Homo sapiens, UniProt Q56UN5); conditions: 1 μM; Run 1, Run 2
T1 sequence (Q56UN5 1-1328): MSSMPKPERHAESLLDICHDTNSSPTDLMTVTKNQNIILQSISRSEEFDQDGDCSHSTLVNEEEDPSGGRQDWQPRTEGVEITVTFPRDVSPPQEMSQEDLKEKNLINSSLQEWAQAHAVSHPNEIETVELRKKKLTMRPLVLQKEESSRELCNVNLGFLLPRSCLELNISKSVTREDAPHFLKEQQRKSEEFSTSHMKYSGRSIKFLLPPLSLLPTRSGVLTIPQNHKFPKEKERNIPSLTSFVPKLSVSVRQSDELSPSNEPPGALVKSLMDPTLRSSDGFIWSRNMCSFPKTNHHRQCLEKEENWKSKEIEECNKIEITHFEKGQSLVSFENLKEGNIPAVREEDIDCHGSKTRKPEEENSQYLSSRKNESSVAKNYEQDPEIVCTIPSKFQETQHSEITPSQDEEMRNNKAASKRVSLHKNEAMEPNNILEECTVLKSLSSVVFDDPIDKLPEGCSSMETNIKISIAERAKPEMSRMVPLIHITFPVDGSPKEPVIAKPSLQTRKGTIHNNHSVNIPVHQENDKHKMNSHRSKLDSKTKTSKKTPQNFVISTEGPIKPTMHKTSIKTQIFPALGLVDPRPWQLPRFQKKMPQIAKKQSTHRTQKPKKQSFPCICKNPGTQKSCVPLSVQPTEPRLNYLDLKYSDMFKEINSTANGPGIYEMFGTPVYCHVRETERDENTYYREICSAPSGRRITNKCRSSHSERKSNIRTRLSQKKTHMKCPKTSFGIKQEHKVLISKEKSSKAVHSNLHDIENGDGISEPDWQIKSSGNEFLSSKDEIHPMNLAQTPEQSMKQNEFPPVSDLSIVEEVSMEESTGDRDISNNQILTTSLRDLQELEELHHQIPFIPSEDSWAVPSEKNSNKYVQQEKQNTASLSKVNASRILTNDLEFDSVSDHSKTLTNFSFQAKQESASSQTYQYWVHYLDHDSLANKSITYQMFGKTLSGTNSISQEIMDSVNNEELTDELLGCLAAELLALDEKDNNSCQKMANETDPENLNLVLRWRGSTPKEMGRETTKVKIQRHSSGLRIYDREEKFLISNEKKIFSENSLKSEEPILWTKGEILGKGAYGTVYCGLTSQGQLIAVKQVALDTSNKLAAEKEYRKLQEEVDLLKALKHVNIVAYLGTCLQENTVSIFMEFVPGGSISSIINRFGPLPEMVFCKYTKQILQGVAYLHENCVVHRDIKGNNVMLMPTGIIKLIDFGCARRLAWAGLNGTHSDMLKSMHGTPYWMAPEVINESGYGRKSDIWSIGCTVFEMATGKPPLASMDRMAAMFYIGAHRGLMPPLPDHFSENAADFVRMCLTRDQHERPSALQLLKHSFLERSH

CYP1A2 = target: T2, CYP1A2 (Homo sapiens, UniProt P05177); assay: CYP inhibition assay; format: in vitro ADME; conditions: human liver microsomes
T2 construct: tissue Corning 452117; host or cells: pooled human liver microsomes (UltraPool HLM 150, mixed gender)

ALK5/TGFBR1 = target: T3, ALK5/TGFBR1 (Homo sapiens, UniProt P36897); assay: 375-member kinase panel; format: biochemical; conditions: Run 1, Run 2; for % enzyme activity: 1 μM; for remaining activity at 1 µM: read-out: % enzyme activity, 1 μM
T3 construct: purchased Reaction Biology Corporation
T3 sequence (P36897 34-503): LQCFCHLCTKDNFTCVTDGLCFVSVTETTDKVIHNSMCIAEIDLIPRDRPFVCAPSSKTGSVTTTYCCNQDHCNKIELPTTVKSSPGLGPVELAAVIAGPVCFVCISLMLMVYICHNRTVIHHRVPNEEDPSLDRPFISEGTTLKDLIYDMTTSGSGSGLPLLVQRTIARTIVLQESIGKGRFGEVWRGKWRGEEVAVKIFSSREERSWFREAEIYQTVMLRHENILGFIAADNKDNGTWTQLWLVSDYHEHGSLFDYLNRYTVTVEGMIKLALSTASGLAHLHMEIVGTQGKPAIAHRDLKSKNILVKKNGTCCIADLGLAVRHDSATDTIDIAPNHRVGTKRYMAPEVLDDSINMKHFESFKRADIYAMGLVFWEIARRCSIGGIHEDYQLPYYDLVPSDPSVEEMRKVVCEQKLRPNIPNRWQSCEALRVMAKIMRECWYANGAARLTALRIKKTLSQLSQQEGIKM

T2 sequence (P05177 whole entry): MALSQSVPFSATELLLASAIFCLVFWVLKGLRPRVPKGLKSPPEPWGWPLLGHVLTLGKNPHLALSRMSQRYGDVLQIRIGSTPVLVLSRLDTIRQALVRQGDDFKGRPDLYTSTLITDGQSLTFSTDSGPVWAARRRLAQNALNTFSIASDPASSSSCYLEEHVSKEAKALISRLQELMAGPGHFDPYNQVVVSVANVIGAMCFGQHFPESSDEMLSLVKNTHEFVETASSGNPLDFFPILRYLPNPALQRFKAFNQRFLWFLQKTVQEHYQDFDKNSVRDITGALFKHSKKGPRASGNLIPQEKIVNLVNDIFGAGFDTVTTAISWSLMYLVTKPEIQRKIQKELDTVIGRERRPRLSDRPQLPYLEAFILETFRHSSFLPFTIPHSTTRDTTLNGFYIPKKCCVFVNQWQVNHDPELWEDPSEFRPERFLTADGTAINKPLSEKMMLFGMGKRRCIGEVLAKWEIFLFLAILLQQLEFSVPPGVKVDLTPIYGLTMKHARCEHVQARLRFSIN

Structure (SMILES) | % enzyme activity (YSK4/MAP3K19) | IC50 (CYP1A2) | % enzyme activity (ALK5/TGFBR1) | remaining activity at 1 µM (ALK5/TGFBR1)
COc1cc(-c2cncc(-c3ccc(N4C[C@@H](C)N(C)[C@@H](C)C4)cc3)c2C)cc(F)c1C(N)=O [Compound 26c, 2-Fluoro-6-methoxy-4-(4-methyl-5-(4-((3R,5S)-3,4,5-trimethylpiperazin-1-yl)phenyl)pyridin-3-yl)benzamide] | 96.61% | > 50 µM | 96.60% | 97.2%
COc1cc(-c2cncc(-c3ccc(N4CCN(C)CC4)cc3)c2C)cc(F)c1C(N)=O [Compound 26a, 2-Fluoro-6-methoxy-4-(4-methyl-5-(4-(4-methylpiperazin-1-yl)phenyl)pyridin-3-yl)benzamide] | 97.39% | > 50 µM | 82.28% | 82.5%
